Here are results for 31 molecules from patent US20100105655A1, “NOVEL COMPOUNDS 515” (ASTRAZENECA AB, priority 2008, published 2010).

pIC50: −log10 of the molar value.

The term pIC50 denotes the IC50 on a negative log10 scale, so that one unit is a factor of ten.

T1 sequence (P08069 31-1367): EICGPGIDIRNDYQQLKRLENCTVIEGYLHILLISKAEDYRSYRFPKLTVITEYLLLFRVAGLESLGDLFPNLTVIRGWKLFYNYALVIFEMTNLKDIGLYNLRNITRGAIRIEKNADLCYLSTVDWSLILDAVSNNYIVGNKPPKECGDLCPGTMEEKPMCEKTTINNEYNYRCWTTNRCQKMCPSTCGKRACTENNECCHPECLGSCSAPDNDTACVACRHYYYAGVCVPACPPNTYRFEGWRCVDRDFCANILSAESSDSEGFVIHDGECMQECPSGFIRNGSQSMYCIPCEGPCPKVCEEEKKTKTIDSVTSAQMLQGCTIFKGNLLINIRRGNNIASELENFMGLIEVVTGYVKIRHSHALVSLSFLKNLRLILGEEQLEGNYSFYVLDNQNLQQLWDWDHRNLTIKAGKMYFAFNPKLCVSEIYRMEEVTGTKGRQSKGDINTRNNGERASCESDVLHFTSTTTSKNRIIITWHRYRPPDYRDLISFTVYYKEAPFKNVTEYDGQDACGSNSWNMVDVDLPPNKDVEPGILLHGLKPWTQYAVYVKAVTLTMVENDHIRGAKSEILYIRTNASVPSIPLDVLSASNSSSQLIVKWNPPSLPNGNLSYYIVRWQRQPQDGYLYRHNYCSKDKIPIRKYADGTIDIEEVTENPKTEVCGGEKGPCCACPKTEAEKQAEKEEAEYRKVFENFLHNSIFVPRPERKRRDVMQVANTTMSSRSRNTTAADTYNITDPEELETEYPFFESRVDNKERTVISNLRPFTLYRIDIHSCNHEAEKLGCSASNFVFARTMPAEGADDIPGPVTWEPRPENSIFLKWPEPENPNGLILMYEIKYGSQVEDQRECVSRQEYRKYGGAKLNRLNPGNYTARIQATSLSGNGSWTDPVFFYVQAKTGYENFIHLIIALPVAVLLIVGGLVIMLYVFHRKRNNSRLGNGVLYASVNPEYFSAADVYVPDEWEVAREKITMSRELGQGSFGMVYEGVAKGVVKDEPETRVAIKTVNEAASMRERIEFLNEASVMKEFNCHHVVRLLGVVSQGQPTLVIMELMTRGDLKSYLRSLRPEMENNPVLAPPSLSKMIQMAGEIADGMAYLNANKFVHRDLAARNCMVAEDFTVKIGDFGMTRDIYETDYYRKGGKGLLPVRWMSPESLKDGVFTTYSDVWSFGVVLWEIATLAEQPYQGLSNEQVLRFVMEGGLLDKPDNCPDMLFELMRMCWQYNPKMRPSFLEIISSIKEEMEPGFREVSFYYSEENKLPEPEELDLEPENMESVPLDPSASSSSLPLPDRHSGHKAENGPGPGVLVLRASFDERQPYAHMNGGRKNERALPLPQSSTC

The assay concerns the target T1, IGFR kinase (Homo sapiens, UniProt P08069).
T1 construct: purchased Millipore
The experiment in a line: Enzyme assay (c), IGFR kinase, Caliper LabChip. Format: biochemical. As to conditions: 30 nM IGFR kinase, 6 uM ATP, 3 uM peptide mix; read-out: IGFR IC50.
For `CC(=O)N1CCN(c2cccc(Nc3ncc(Cl)c(-c4cnc5ccccn45)n3)c2C)CC1` [Example 3.37, 1-[4-[3-[(5-chloro-4-imidazo[1,2-a]pyridin-3-yl-pyrimidin-2-yl)amino]-2-methyl-phenyl]piperazin-1-yl]ethanone], the pIC50 is 7.92. In the case of `COc1cc(CN2CCCN(C)CC2)ccc1Nc1ncc(Cl)c(-c2cnc3ccccn23)n1` [Example 21.11, 5-chloro-4-imidazo[1,2-a]pyridin-3-yl-N-[2-methoxy-4-[(4-methyl-1,4-diazepan-1-yl)methyl]phenyl]pyrimidin-2-amine] it was 7.64; in that of `COc1cc(N2CCNCC2)ccc1Nc1ncc(C)c(-c2cnc3ccccn23)n1` [Example 98, 4-imidazo[1,2-a]pyridin-3-yl-N-(2-methoxy-4-piperazin-1-yl-phenyl)-5-methyl-pyrimidin-2-amine], 7.66. Next, `COc1cc(C2CNC(=O)C2)ccc1Nc1ncc(Cl)c(-c2cnc3ccccn23)n1` (stereo not shown) [Example 3.24, 4-[4-[(5-chloro-4-imidazo[1,2-a]pyridin-3-yl-pyrimidin-2-yl)amino]-3-methoxy-phenyl]pyrrolidin-2-one]: 8.10; `COc1cc(N2CC[C@@H](NC(C)=O)C2)ccc1Nc1ncc(Cl)c(-c2cnc3ccccn23)n1` [Example 3.23, N-((3R)-1-(4-(5-chloro-4-(imidazo[1,2-a]pyridin-3-yl)pyrimidin-2-ylamino)-3-methoxyphenyl)pyrrolidin-3-yl)acetamide]: 7.74. In the case of `CCOc1cc(N2CCN(C)CC2)ccc1Nc1ncc(Br)c(-c2cnc3ccccn23)n1` [Example 122, 5-bromo-N-[2-ethoxy-4-(4-methylpiperazin-1-yl)phenyl]-4-imidazo[1,2-a]pyridin-3-yl-pyrimidin-2-amine] it was 8.10; in that of `COc1cc(C2CCN(C(=O)[C@@H](C)OC)CC2)ccc1Nc1ncc(Cl)c(-c2cnc3ccccn23)n1` [Example 28.1, (2R)-1-[4-[4-[(5-chloro-4-imidazo[1,2-a]pyridin-3-yl-pyrimidin-2-yl)amino]-3-methoxy-phenyl]-1-piperidyl]-2-methoxy-propan-1-one], 8.30.

`COc1cc(C(=O)N2C[C@@H]3C[C@H]2CN3)ccc1Nc1ncc(Cl)c(-c2cnc3ccccn23)n1` [Example 29, [4-[(5-chloro-4-imidazo[1,2-a]pyridin-3-yl-pyrimidin-2-yl)amino]-3-methoxy-phenyl]-[(1S,4S)-2,5-diazabicyclo[2.2.1]heptan-5-yl]methanone]: the pIC50 is 7.77.

Consider `COc1cc(C(=O)N(C)CCO)ccc1Nc1ncc(Cl)c(-c2cnc3ccccn23)n1` [Example 33, 4-[(5-chloro-4-imidazo[1,2-a]pyridin-3-yl-pyrimidin-2-yl)amino]-N-(2-hydroxyethyl)-3-methoxy-N-methyl-benzamide], for which the pIC50 is 7.24. Next, `COc1cc(C2CCN(C(=O)[C@@H](C)O)CC2)ccc1Nc1ncc(Cl)c(-c2cnc3ccc(F)cn23)n1` [Example 246, (2R)-1-[4-[4-[[5-chloro-4-(6-fluoroimidazo[1,2-a]pyridin-3-yl)pyrimidin-2-yl]amino]-3-methoxyphenyl]-1-piperidyl]-2-hydroxy-propan-1-one]: 8.40; `COc1cc(C2CCN(C(=O)CO)CC2)ccc1Nc1ncc(Cl)c(-c2cnc3cc(C)ccn23)n1` [Example 245, 1-[4-[4-[[5-chloro-4-(7-methylimidazo[1,2-a]pyridin-3-yl)pyrimidin-2-yl]amino]-3-methoxy-phenyl]-1-piperidyl]-2-hydroxy-ethanone]: 8.40; `COc1cc(N2CC(C)NC(C)C2)ccc1Nc1ncc(Cl)c(-c2cnc3ccccn23)n1` (stereo not shown) [Example 3.6, 5-chloro-N-[4-(3,5-dimethylpiperazin-1-yl)-2-methoxy-phenyl]-4-imidazo[1,2-a]pyridin-3-yl-pyrimidin-2-amine]: 7.70. Next, `COc1cc(O[C@@H]2CCN(C(C)=O)C2)ccc1Nc1ncc(Cl)c(-c2cnc3ccccn23)n1` [Example 10, 1-[(3R)-3-[4-[(5-chloro-4-imidazo[1,2-a]pyridin-3-yl-pyrimidin-2-yl)amino]-3-methoxy-phenoxy]pyrrolidin-1-yl]ethanone]: 7.70. Turning to `COc1cc(N2CCN(C(C)=O)CC2)ccc1Nc1ncc(Cl)c(-c2cnc3cc(CN4CCOCC4)ccn23)n1` [Example 187, 1-[4-[4-[[5-chloro-4-[7-(morpholinomethyl)imidazo[1,2-a]pyridin-3-yl]pyrimidin-2-yl]amino]-3-methoxy-phenyl]piperazin-1-yl]ethanone], the pIC50 was 7.37. On to `COc1cc(C(=O)N2CCNCC2)ccc1Nc1ncc(Cl)c(-c2cnc3ccccn23)n1` [Example 30, [4-[(5-chloro-4-imidazo[1,2-a]pyridin-3-yl-pyrimidin-2-yl)amino]-3-methoxy-phenyl]-piperazin-1-yl-methanone], for which the pIC50 was 7.48. In the case of `COc1cc(N2CCN(C(=O)[C@@H](C)N)CC2)ccc1Nc1ncc(Cl)c(-c2cnc3c(F)cc(F)cn23)n1` [Example 253, (2R)-2-amino-1-[4-[4-[[5-chloro-4-(6,8-difluoroimidazo[1,2-a]pyridin-3-yl)pyrimidin-2-yl]amino]-3-methoxy-phenyl]piperazin-1-yl]propan-1-one] it was 8.40; in that of `COc1cc(N2CCNCC2=O)ccc1Nc1ncc(Cl)c(-c2cnc3c(F)cccn23)n1` [Example 224, 1-[4-[[5-chloro-4-(8-fluoroimidazo[1,2-a]pyridin-3-yl)pyrimidin-2-yl]amino]-3-methoxy-phenyl]piperazin-2-one], 8.52; in that of `COc1cc(N2CCN(C(=O)C3CC3)CC2)ccc1Nc1ncc(Cl)c(-c2cnc3ccccn23)n1` [Example 43, [4-[4-[(5-chloro-4-imidazo[1,2-a]pyridin-3-ylpyrimidin-2-yl)amino]-3-methoxyphenyl]piperazin-1-yl]-cyclopropylmethanone], 8.00.

On to `COc1cc(C2CCN(C(C)=O)CC2)ccc1Nc1ncc(C)c(-c2cnc3c(F)cccn23)n1` [Example 196, 1-[4-[4-[[4-(8-fluoroimidazo[1,2-a]pyridin-3-yl)-5-methyl-pyrimidin-2-yl]amino]-3-methoxy-phenyl]-1-piperidyl]ethanone], for which the negative logarithm of the IC50 (pIC50) is 7.89. Take `COc1ccc(N2CCNCC2)cc1Nc1ncc(C)c(-c2cnc3c(F)cccn23)n1` [Example 199, 4-(8-fluoroimidazo[1,2-a]pyridin-3-yl)-N-(2-methoxy-5-piperazin-1-yl-phenyl)-5-methyl-pyrimidin-2-amine]: the pIC50 is 6.96. In the case of `COc1cc(C2CCN(C(=O)[C@@H](C)O)CC2)ccc1Nc1ncc(C)c(-c2cnn3ccccc23)n1` [Example 164, (2R)-2-hydroxy-1-[4-[3-methoxy-4-[(5-methyl-4-pyrazolo[1,5-a]pyridin-3-yl-pyrimidin-2-yl)amino]phenyl]-1-piperidyl]propan-1-one] it was 7.82; in that of `COc1cc(C2CCOCC2)ccc1Nc1ncc(F)c(-c2cnc3ccccn23)n1` [Example 113, 5-fluoro-4-imidazo[1,2-a]pyridin-3-yl-N-(2-methoxy-4-tetrahydropyran-4-yl-phenyl)pyrimidin-2-amine], 7.48; in that of `COCC(=O)N1CCN(c2ccc(Nc3ncc(Cl)c(-c4cnc5ccccn45)n3)c(OC)c2)CC1` [Example 39, 1-[4-[4-[(5-chloro-4-imidazo[1,2-a]pyridin-3-yl-pyrimidin-2-yl)amino]-3-methoxy-phenyl]piperazin-1-yl]-2-methoxy-ethanone], 7.92.

In the case of `COc1cc(N2CCN(C(=O)[C@@H](C)O)CC2)ccc1Nc1ncc(Cl)c(-c2cnc3c(F)cc(F)cn23)n1` [Example 256, (2R)-1-[4-[4-[[5-chloro-4-(6,8-difluoroimidazo[1,2-a]pyridin-3-yl)pyrimidin-2-yl]amino]-3-methoxy-phenyl]piperazin-1-yl]-2-hydroxy-propan-1-one], the pIC50 was 8.30. In the case of `COc1cc(C2CCN(C(C)=O)CC2)ccc1Nc1ncc(C#N)c(-c2cnn3ccccc23)n1` [Example 239, 2-[4-(1-acetyl-4-piperidyl)-2-methoxy-anilino]-4-pyrazolo[1,5-a]pyridin-3-yl-pyrimidine-5-carbonitrile] it was 6.96; in that of `COc1cc(CC(CO)CO)ccc1Nc1ncc(Cl)c(-c2cnc3c(F)cccn23)n1` [Example 193, 2-[[4-[[5-chloro-4-(8-fluoroimidazo[1,2-a]pyridin-3-yl)pyrimidin-2-yl]amino]-3-methoxy-phenyl]methyl]propane-1,3-diol], 7.60; in that of `COc1cc(N2CCNCC2)ccc1Nc1ncc(OC)c(-c2cnc3ccccn23)n1` [Example 93, 4-imidazo[1,2-a]pyridin-3-yl-5-methoxy-N-(2-methoxy-4-piperazin-1-yl-phenyl)pyrimidin-2-amine], 7.57. Next, `COc1cc(C(C)C(=O)N2CCOCC2)ccc1Nc1ncc(Cl)c(-c2cnc3ccccn23)n1` (stereo not shown) [Example 3.39, 2-[4-[(5-chloro-4-imidazo[1,2-a]pyridin-3-yl-pyrimidin-2-yl)amino]-3-methoxy-phenyl]-1-morpholino-propan-1-one]: 7.51; `COc1cc(N2CCN(C(=O)[C@@H](C)O)CC2)ccc1Nc1ncc(Cl)c(-c2cnc3ccc(F)cn23)n1` [Example 255, (2R)-1-[4-[4-[[5-chloro-4-(6-fluoroimidazo[1,2-a]pyridin-3-yl)pyrimidin-2-yl]amino]-3-methoxy-phenyl]piperazin-1-yl]-2-hydroxy-propan-1-one]: 8.30. In the case of `COc1cc(N2CCN(S(=O)(=O)N(C)C)CC2)ccc1Nc1ncc(Cl)c(-c2cnc3ccccn23)n1` [Example 3.7, 4-[4-[(5-chloro-4-imidazo[1,2-a]pyridin-3-yl-pyrimidin-2-yl)amino]-3-methoxy-phenyl]-N,N-dimethyl-piperazine-1-sulfonamide] it was 7.96; in that of `COc1cc(OC2CCN(C(=O)[C@H](C)O)CC2)ccc1Nc1ncc(Cl)c(-c2cnc3ccccn23)n1` [Example 9A, (2S)-1-[4-[4-[(5-chloro-4-imidazo[1,2-a]pyridin-3-yl-pyrimidin-2-yl)amino]-3-methoxy-phenoxy]-1-piperidyl]-2-hydroxy-propan-1-one], 7.74.
